pIC50: −log10 of the molar value. Starred links: 1 amine or outer side, 2 acyl side, 3 side chain; linkers in the order of their positions; H or OH if unused. Non-standard residues stand in square brackets, D forms with d. Residues, ends and D or L forms follow the SMILES beside them. *: point of attachment. Hyp(2-Ph-quinolin-4-yl) = O=C(O)[C@@H]1C[C@@H](Oc2cc(-c3ccccc3)nc3ccccc23)CN1; Hyp(quinolin-4-yl) = O=C(O)[C@@H]1C[C@@H](Oc2ccnc3ccccc23)CN1; Acca(2-Et,1R,2R) = CC[C@@H]1C[C@]1(N)C(=O)O; NH(1S-phenylpropyl) = CC[C@H](N*)c1ccccc1; Hyp = O=C(O)[C@@H]1C[C@@H](O)CN1; azaNva = CCCN(N[*:1])C(=O)[*:2]; X2 = C[C@H](N*)c1cccc2ccccc12; Chg = N[C@H](C(=O)O)C1CCCCC1; X9 = C[C@H](N*)c1nnn[nH]1; Ac3c = NC1(C(=O)O)CC1; Bn = c1ccc(C*)cc1
Legend:
[1] = tested on: Human immunodeficiency virus 1; test: Antiviral activity against HIV1; assay type: functional, organism-based
Human betaherpesvirus 5 = test: Antiviral activity against Human cytomegalovirus; assay type: functional, organism-based
Human alphaherpesvirus 1 = test: Antiviral activity against Herpes simplex virus 1; assay type: functional, organism-based; settings: Human alphaherpesvirus 1
Human alphaherpesvirus 3 = test: Antiviral activity against Varicella zoster virus; assay type: functional, organism-based
Human alphaherpesvirus 2 = test: Antiviral activity against Herpes simplex virus 2; assay type: functional, organism-based; settings: Human alphaherpesvirus 2
Vaccinia virus = test: Antiviral activity against Vaccinia virus; assay type: functional, organism-based, Orthopoxvirus vaccinia; settings: Orthopoxvirus vaccinia
Hepatitis C virus = test: Antiviral activity against Hepatitis C virus; assay type: functional, organism-based, Hepacivirus hominis; settings: Hepatitis C virus

SMILES | pIC50 (Human betaherpesvirus 5; Human betaherpesvirus 5) | pIC50 (Hepatitis C virus) | also measured
COc1c(C=O)c2cc(Cl)c(Cl)cc2n1[C@H]1C[C@H](O)[C@@H](CO)O1 | 4.00 | – | pIC50 [1]: 4.00
Cc1c(C(=O)N2CCC[C@H]2C(=O)N2CC[C@H]3[C@H]2[C@H](C)C(=O)N3C(=O)C2CC2)sc2ccc(Cl)cc12 | 6.72 | – | –
Cc1cn(/C=C2/CC2(CO)CO)c(=O)[nH]c1=O | 3.38 | – | pIC50 (Human alphaherpesvirus 1): 3.38; pIC50 (Human alphaherpesvirus 3): 3.38; pIC50 (Human alphaherpesvirus 2): 3.38
Nc1cc(OC[C@H](CO)OCP(=O)(O)O)nc(N)n1 | – | – | pIC50 (Human alphaherpesvirus 1): 11.32; pIC50 (Vaccinia virus): 11.19; pIC50 (Human alphaherpesvirus 2): 10.77
C[C@@H]1C(=O)N(C(=O)C2CC2)[C@H]2CCN(C(=O)[C@@H]3CCCN3S(=O)(=O)c3ccc4ccccc4c3)[C@H]12 | 6.72 | – | –
CC(C)Oc1cccc(S(=O)(=O)N2CCC[C@H]2C(=O)N2CC[C@H]3[C@H]2[C@H](C)C(=O)N3C(=O)C2CC2)c1 | 4.19 | – | –
CCCCCCCCCCCCCCCCCCOCCOP1(=O)CO[C@@H](Cn2ccc(N)nc2=O)CO1 (stereo partly specified) | – | – | pIC50 (Vaccinia virus): 6.24
O=c1[nH]c(=O)n([C@H]2C[C@H](O)[C@]3(CO)C[C@H]23)cc1Br | – | – | pIC50 (Human alphaherpesvirus 1): 5.91; pIC50 (Human alphaherpesvirus 2): 5.66
Nc1ccn(C[C@@H](CO)OCP(=O)(O)O)c(=O)n1 (stereo in doubt; form 2) [CIDOFOVIR] | – | – | pIC50 (Vaccinia virus): 4.49
C[C@@H]1C(=O)N(C(=O)C2CC2)[C@H]2CCN(C(=O)[C@@H]3CCCN3C(=O)Nc3cccc(Cl)c3)[C@H]12 | 6.19 | – | –
Nc1nc2c(ncn2COCCO)c(=O)[nH]1 [ACYCLOVIR] | – | – | pIC50 (Vaccinia virus): 6.42
Nc1nc(N)c(Br)c(OCCOCP(=O)(O)O)n1 | 9.82 | – | pIC50 (Human alphaherpesvirus 3): 9.82; pIC50 (Vaccinia virus): 9.15; pIC50 (Human alphaherpesvirus 2): 9.15
CCCc1nn([C@H]2C[C@H](O)[C@@H](CO)S2)c(=O)[nH]c1=O | 4.40 | – | –
C[C@@H]1C(=O)N(C(=O)C2CC2)[C@H]2CCN(C(=O)[C@@H]3CCCN3C(=O)Nc3ccc(Cl)cc3)[C@H]12 | 6.59 | – | –
CC(C)OC(=O)OCOP(=O)(CO[C@H](C)Cn1cnc2c(N)ncnc21)OCOC(=O)OC(C)C [TENOFOVIR DISOPROXIL] | – | – | pIC50 (Vaccinia virus): 3.80
O=c1[nH]c(=O)n([C@H]2C[C@H](O)[C@]3(CO)C[C@H]23)cc1/C=C/Br | – | – | pIC50 (Human alphaherpesvirus 1): 5.19; pIC50 (Human alphaherpesvirus 2): 3.54
C[C@@H]1C(=O)N(C(=O)C2CC2)[C@H]2CCN(C(=O)[C@@H]3CCCN3C(=O)c3cccc4ccccc34)[C@H]12 | 6.05 | – | –
CCCCCCCCCCCCCCCCCCOCCCOP(=O)(O)CO[C@H](CO)Cn1ccc(N)nc1=O | 10.52 | – | –
O=c1[nH]c(=O)n([C@H]2C[C@H](O)[C@]3(CO)C[C@H]23)cc1I | – | – | pIC50 (Human alphaherpesvirus 1): 3.56; pIC50 (Human alphaherpesvirus 2): 5.04
COc1c(C#N)c2cc(Cl)c(Cl)cc2n1[C@H]1C[C@H](O)[C@@H](CO)O1 | 4.17 | – | pIC50 [1]: 4.05
Nc1nc(N)c(Cl)c(OCCOCP(=O)(O)O)n1 | – | – | pIC50 (Vaccinia virus): 8.92; pIC50 (Human alphaherpesvirus 2): 8.92

SMILES | pIC50 (Human betaherpesvirus 5; Human betaherpesvirus 5) | pIC50 (Hepatitis C virus) | also measured
C[C@@H]1C(=O)N(C(=O)C2CC2)[C@H]2CCN(C(=O)[C@@H]3CCCN3S(=O)(=O)c3ccc(Cl)cc3)[C@H]12 (stereo in doubt; form 2) | – | – | pIC50 (Human betaherpesvirus 5): 6.08
Nc1ncnc2c1ncn2CCOCP(=O)(O)O [ADEFOVIR] | – | – | pIC50 (Human alphaherpesvirus 1): 10.62
CN(C)c1cc(O)nc(N)n1 | – | – | pIC50 (Human alphaherpesvirus 1): 8.59; pIC50 (Human alphaherpesvirus 3): 9.49; pIC50 (Human alphaherpesvirus 2): 8.59
CCCOc1ccc(NC(=O)N2CCC[C@H]2C(=O)N2CC[C@H]3[C@H]2[C@H](C)C(=O)N3C(=O)C2CC2)cc1 | 6.68 | – | –
CC(=O)OC[C@H]1S[C@@H](n2nc(C)c(=S)[nH]c2=O)C[C@@H]1OC(C)=O | – | – | pIC50 (Human alphaherpesvirus 1): 5.10; pIC50 (Human alphaherpesvirus 2): 5.10
O[C@@H]1[C@H](O)[C@@H](n2c(Cl)nc3cc(Cl)c(Cl)cc32)O[C@H]1C(F)(F)F | 6.35 | – | –
Nc1nc(NC2CC2)cc(=O)n1CCOCP(=O)(O)O | – | – | pIC50 (Human alphaherpesvirus 1): 10.28; pIC50 (Human alphaherpesvirus 3): 9.78; pIC50 (Human alphaherpesvirus 2): 10.28; pIC50 [1]: 9.48
CC(=O)c1c(Br)n([C@H]2C[C@H](O)[C@@H](CO)O2)c2cc(Cl)c(Cl)cc12 | 6.47 | – | –
C[C@@H]1C(=O)N(C(=O)C2CC2)[C@H]2CCN(C(=O)[C@@H]3CCCN3C(=O)Nc3cccc4ccccc34)[C@H]12 | 6.19 | – | –
CC[C@@H]1C[C@]1(NC(=O)[C@@H]1C[C@@H](Oc2cccc(-c3ccccc3)c2)CN1C(=O)[C@@H](NC(=O)[C@@H](NC(C)=O)C1CCCCC1)C(C)C)C(=O)O | – | 6.92 | –
N#Cc1c(Cl)n([C@@H]2O[C@H](CN=[N+]=[N-])[C@@H](O)[C@H]2O)c2cc(Cl)c(Cl)cc12 | 5.52 | – | pIC50 [1]: 4.82
CC[C@@H]1C[C@]1(NC(=O)[C@@H]1C[C@@H](Oc2cc(-c3ccccc3)nc3ccccc23)CN1C(=O)[C@@H](NC(=O)[C@@H](NC(C)=O)C1CCCCC1)C(C)C)C(=O)O (Ac-[Chg]V[Hyp(2-Ph-quinolin-4-yl)][Acca(2-Et,1R,2R)]-OH) | – | 7.89 | –
CCc1ccc(C(=O)CC(=O)C(=O)O)cc1 | – | 4.33 | –
CC(=O)N[C@H](C(=O)N[C@H](C(=O)N1C[C@H](OCc2cccc3ccccc23)C[C@H]1C(=O)N[C@@]1(C(=O)O)C[C@@H]1C)C(C)C)C1CCCCC1 | – | 3.74 | –
CC(=O)N[C@H](C(=O)N[C@H](C(=O)N1C[C@H](Oc2ccnc3ccccc23)C[C@H]1C(=O)NC1(C(=O)O)CC1)C(C)C)C1CCCCC1 (Ac-[Chg]V[Hyp(quinolin-4-yl)][Ac3c]-OH) | – | 5.66 | –
CCCN(NC(=O)[C@@H]1C[C@@H](OCc2ccccc2)CN1C(=O)[C@@H](NC(=O)[C@@H](NC(=O)[C@@H](CCC(=O)O)NC(=O)[C@H](CC(=O)O)NC(C)=O)[C@@H](C)CC)C(C)C)C(=O)N[C@@H](CC)c1ccccc1 (Ac-D[dE]IV[Hyp](Bn)[azaNva]-{NH(1S-phenylpropyl)}) | – | 6.36 | –
Cc1ccc(C(=O)CC(=O)C(=O)O)cc1 | – | 4.30 | –
COC(=O)c1cccc(CCNC(=O)[C@H](CS)NC(=O)[C@H](CC(C)C)NC(=O)[C@H](CCC(=O)O)NC(=O)OCC(C)C)c1 | – | 4.60 | –
CC(C)OP(=O)(COCCOc1cc(N)ncn1)OC(C)C | – | – | pIC50 (Human alphaherpesvirus 1): 8.92; pIC50 (Human alphaherpesvirus 3): 9.82; pIC50 (Human alphaherpesvirus 2): 8.92; pIC50 [1]: 5.22
CCCC1(CC(=O)OCC)OCCc2c1[nH]c1c(C)ccc(C#N)c21 (stereo unspecified) | – | 4.52 | –
C[C@@]1(O)[C@H](O)[C@@H](CO)O[C@H]1n1ccc2c(N)nc(F)nc21 | – | 4.00 | –

SMILES | pIC50 (Human betaherpesvirus 5; Human betaherpesvirus 5) | pIC50 (Hepatitis C virus) | also measured
CC(C)Oc1ccc(NC(=O)N2CCC[C@H]2C(=O)N2CC[C@H]3[C@H]2[C@H](C)C(=O)N3C(=O)C2CC2)cc1 | 6.74 | – | –
N#Cc1ccccc1CN(C(=O)c1ccc(Cl)cc1Cl)[C@@H](Cc1ccccc1)C(=O)O | – | 5.22 | –
CC(NP1(=O)CO[C@@H](Cn2ccc(N)nc2=O)CO1)C(=O)OCCc1ccccc1 (stereo partly specified) | – | – | pIC50 (Vaccinia virus): 5.15
Cc1cn([C@H]2C[C@H](O)[C@]3(CO)C[C@H]23)c(=O)[nH]c1=O [(NORTH)-METHANOCARBATHYMIDINE] | – | – | pIC50 (Human alphaherpesvirus 1): 6.92
CNc1nc(-c2cc(O[C@@H]3C[C@H]4C(=O)N[C@]5(C(=O)O)C[C@H]5/C=C\CCCCC[C@H](NC(=O)OC5CCCC5)C(=O)N4C3)c3ccc(OC)cc3n2)cs1 | – | 8.60 | –
C[C@@]1(O)[C@H](O)[C@@H](CO)O[C@H]1n1ncc2c(N)ncnc21 | – | 4.00 | –
CCCN(NC(=O)[C@@H]1C[C@@H](OCc2ccccc2)CN1C(=O)[C@@H](NC(=O)[C@@H](NC(=O)[C@@H](CCC(=O)O)NC(=O)[C@H](CC(=O)O)NC(C)=O)[C@@H](C)CC)C(C)C)C(=O)N[C@@H](C)c1nnn[nH]1 (Ac-D[dE]IV[Hyp](Bn)[azaNva]-X9) | – | 6.07 | –
O=C(O)[C@H](Cc1ccccc1)N(Cc1cccc(F)c1)C(=O)c1ccc(Cl)cc1Cl | – | 5.49 | –
Nc1cc(OCCOCP(=O)(O)O)nc(N)n1 | – | – | pIC50 (Human alphaherpesvirus 1): 10.61; pIC50 (Human alphaherpesvirus 2): 10.04
CC(C)(C)c1ccc(C(=O)CC(=O)C(=O)O)cc1 | – | 4.30 | –
CCCN(NC(=O)[C@@H]1C[C@@H](OCc2ccccc2)CN1C(=O)[C@@H](NC(=O)[C@@H](NC(=O)[C@@H](CCC(=O)O)NC(=O)[C@H](CC(=O)O)NC(C)=O)[C@@H](C)CC)C(C)C)C(=O)N[C@@H](C)c1cccc2ccccc12 (Ac-D[dE]IV[Hyp](Bn)[azaNva]-X2) | – | 6.31 | –
O=C(O)[C@H](Cc1ccccc1)N(Cc1ccc(-c2cc3ccccc3o2)s1)C(=O)c1ccc(Cl)cc1Cl | – | 5.07 | –
N#Cc1ccc(CN(C(=O)c2ccc(Cl)cc2Cl)[C@@H](Cc2ccccc2)C(=O)O)cc1 | – | 5.10 | –
COc1ccc2c(O[C@@H]3C[C@H]4C(=O)N[C@]5(C(=O)O)C[C@H]5/C=C\CCCCC[C@H](NC(=O)OC5CCC5)C(=O)N4C3)cc(-c3csc(NC(C)=O)n3)nc2c1 | – | 8.59 | –
OC[C@H]1O[C@@H](n2c(Cl)nc3cc(Cl)c(Cl)cc32)[C@H](O)[C@@H]1O | 5.49 | – | –
C[C@@H]1C(=O)N(C(=O)C2CC2)[C@H]2CCN(C(=O)[C@@H]3CCCN3C(=O)c3ccc(Cl)cc3)[C@H]12 | 5.85 | – | –
O=C(O)[C@H](Cc1ccccc1)N(Cc1cccc([N+](=O)[O-])c1)C(=O)c1ccc(Cl)cc1Cl | – | 6.15 | –
CCCCOc1ccccc1C(=O)CC(=O)C(=O)O | – | 5.00 | –
C[C@@H]1C(=O)N(C(=O)C2CC2)[C@H]2CCN(C(=O)[C@@H]3CCCN3C(=O)Nc3ccccc3)[C@H]12 | 5.85 | – | –

— ChEMBL document CHEMBL1136837, “Unified QSAR approach to antimicrobials. 4. Multi-target QSAR modeling and comparative multi-distance study of the giant components of antiviral drug-drug complex networks” (Bioorg Med Chem, 2009)
